Reference: ChEMBL document CHEMBL4507281, “Data for DCP probe BI-4394” (2021)

Columns and labels:
[1] = molecular target: Serine/threonine-protein kinase D1 (Homo sapiens) (UniProt Q15139); conditions: Compound concentration 100.0 nM
[2] = molecular target: Serine/threonine-protein kinase RIO3 (Homo sapiens) (UniProt O14730); conditions: Compound concentration 100.0 nM
[3] = molecular target: Cyclin-dependent kinase 15 (Homo sapiens) (UniProt Q96Q40); conditions: Compound concentration 100.0 nM
[4] = molecular target: Serine/threonine-protein kinase 16 (Homo sapiens) (UniProt O75716); conditions: Compound concentration 100.0 nM
[5] = molecular target: Non-receptor tyrosine-protein kinase TYK2 (Homo sapiens) (UniProt P29597); conditions: Compound concentration 100.0 nM
[6] = molecular target: Activin receptor type-1-like (Homo sapiens) (UniProt P37023); conditions: Compound concentration 100.0 nM
[7] = molecular target: Cytoplasmic tyrosine-protein kinase BMX (Homo sapiens) (UniProt P51813); conditions: Compound concentration 100.0 nM
[8] = system: Tyrosine-protein kinase ABL1 (Homo sapiens), P00519 [F317L]; conditions: Compound concentration 100.0 nM
[9] = molecular target: Serine/threonine-protein kinase MAK (Homo sapiens) (UniProt P20794); conditions: Compound concentration 100.0 nM
Serine/threonine-protein kinase MAK (Homo sapiens), sequence (P20794 whole entry): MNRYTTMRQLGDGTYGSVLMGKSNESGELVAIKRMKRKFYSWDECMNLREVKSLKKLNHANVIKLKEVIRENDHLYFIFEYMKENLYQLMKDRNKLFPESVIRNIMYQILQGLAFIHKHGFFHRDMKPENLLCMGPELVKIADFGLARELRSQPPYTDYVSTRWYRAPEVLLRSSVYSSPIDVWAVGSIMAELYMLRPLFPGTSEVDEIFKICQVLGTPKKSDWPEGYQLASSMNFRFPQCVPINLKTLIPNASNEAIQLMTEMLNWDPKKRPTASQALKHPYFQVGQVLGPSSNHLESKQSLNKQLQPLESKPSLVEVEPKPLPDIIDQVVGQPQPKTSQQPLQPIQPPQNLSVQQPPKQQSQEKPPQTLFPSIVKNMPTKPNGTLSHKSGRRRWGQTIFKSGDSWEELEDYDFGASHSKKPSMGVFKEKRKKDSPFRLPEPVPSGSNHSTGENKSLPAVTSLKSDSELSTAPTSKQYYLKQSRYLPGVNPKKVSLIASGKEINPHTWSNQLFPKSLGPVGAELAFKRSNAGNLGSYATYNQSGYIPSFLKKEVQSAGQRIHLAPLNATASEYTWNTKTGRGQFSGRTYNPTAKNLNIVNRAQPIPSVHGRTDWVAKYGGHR

[10] = molecular target: 5-hydroxytryptamine receptor 1B (Homo sapiens) (UniProt P28222); conditions: Compound concentration 10.0 uM
[11] = molecular target: Maternal embryonic leucine zipper kinase (Homo sapiens) (UniProt Q14680); conditions: Compound concentration 100.0 nM
[12] = molecular target: Mitogen-activated protein kinase kinase kinase 7 (Homo sapiens) (UniProt O43318); conditions: Compound concentration 100.0 nM
Mitogen-activated protein kinase kinase kinase 7 (Homo sapiens), sequence (O43318 whole entry): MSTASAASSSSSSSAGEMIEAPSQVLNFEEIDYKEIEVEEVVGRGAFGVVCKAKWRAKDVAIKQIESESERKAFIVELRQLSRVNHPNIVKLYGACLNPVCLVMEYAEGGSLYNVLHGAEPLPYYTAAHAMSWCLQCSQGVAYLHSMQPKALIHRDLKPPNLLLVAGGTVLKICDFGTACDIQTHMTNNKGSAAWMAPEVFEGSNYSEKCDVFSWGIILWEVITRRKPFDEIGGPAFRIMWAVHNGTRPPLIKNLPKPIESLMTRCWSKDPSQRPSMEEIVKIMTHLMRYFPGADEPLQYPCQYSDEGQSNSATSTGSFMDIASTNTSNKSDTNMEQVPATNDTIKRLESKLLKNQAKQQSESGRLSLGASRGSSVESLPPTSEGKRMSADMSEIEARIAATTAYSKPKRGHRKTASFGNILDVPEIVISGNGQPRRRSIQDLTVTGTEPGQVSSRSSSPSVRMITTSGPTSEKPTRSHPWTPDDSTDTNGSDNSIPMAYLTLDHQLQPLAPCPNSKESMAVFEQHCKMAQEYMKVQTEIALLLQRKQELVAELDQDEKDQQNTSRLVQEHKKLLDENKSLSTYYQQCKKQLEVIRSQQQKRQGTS

[13] = molecular target: Interleukin-1 receptor-associated kinase 3 (Homo sapiens) (UniProt Q9Y616); conditions: Compound concentration 100.0 nM
[14] = system: Fibroblast growth factor receptor 3 (Homo sapiens), P22607 [G697C]; conditions: Compound concentration 100.0 nM
[15] = molecular target: Vascular endothelial growth factor receptor 3 (Homo sapiens) (UniProt P35916); conditions: Compound concentration 100.0 nM
Vascular endothelial growth factor receptor 3 (Homo sapiens), sequence (P35916 whole entry): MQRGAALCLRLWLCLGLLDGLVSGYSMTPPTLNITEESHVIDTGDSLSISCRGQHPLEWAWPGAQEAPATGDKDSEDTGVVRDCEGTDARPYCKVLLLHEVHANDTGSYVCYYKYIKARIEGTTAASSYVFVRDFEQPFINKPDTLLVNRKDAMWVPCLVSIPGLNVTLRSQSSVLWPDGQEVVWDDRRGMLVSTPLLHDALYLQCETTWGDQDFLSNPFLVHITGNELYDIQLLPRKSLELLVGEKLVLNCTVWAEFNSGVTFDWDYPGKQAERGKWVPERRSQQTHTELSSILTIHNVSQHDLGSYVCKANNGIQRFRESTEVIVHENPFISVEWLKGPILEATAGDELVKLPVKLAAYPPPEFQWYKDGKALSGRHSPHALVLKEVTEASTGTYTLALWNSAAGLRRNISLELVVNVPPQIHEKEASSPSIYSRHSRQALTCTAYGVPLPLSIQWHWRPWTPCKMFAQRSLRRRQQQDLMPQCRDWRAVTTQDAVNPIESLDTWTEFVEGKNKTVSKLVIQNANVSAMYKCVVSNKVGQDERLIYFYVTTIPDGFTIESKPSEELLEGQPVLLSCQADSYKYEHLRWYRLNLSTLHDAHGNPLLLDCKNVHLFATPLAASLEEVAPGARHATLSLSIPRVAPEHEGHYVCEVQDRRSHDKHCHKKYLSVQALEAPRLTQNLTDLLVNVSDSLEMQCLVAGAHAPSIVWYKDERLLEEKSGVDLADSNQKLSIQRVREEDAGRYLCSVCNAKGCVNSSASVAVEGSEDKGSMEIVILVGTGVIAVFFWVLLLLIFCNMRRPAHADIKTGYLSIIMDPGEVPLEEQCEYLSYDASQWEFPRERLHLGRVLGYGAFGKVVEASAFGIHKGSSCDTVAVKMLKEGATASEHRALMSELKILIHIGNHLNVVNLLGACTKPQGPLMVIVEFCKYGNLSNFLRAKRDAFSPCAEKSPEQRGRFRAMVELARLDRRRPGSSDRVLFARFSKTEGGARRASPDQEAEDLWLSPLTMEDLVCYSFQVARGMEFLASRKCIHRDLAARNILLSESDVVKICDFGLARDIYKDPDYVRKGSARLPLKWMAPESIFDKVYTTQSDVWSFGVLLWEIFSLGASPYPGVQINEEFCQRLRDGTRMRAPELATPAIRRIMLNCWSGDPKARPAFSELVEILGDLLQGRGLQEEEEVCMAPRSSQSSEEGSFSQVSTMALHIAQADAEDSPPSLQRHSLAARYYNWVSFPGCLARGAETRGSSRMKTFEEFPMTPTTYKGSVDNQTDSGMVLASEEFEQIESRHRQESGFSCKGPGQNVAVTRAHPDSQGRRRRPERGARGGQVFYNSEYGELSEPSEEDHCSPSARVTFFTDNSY

[16] = molecular target: Tyrosine-protein kinase BTK (Homo sapiens) (UniProt Q06187); conditions: Compound concentration 100.0 nM
[17] = molecular target: Calcium/calmodulin-dependent protein kinase type 1D (Homo sapiens) (UniProt Q8IU85); conditions: Compound concentration 100.0 nM
[18] = molecular target: Fibroblast growth factor receptor 2 (Homo sapiens) (UniProt P21802); conditions: Compound concentration 100.0 nM
Fibroblast growth factor receptor 2 (Homo sapiens), sequence (P21802 22-821 limits assumed): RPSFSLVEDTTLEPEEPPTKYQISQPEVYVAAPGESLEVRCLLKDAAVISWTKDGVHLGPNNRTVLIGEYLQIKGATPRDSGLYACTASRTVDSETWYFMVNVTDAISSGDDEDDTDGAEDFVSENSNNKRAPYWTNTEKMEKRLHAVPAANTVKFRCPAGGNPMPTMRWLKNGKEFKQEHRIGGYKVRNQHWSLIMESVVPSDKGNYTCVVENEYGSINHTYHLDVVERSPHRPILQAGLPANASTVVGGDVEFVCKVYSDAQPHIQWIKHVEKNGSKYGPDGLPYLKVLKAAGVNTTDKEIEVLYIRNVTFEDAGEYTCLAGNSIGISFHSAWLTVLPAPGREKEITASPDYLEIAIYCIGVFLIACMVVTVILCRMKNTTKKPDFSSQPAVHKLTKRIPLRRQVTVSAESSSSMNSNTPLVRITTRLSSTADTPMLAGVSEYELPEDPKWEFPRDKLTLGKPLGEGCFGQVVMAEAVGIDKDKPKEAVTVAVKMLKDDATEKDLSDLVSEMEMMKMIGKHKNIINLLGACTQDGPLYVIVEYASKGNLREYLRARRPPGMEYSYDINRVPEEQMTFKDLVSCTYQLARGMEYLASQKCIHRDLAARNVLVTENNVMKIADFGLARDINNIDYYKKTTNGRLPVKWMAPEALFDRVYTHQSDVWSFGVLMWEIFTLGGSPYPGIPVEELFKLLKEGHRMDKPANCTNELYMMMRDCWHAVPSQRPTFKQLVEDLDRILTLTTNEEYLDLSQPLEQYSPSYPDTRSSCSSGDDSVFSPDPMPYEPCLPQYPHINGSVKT

[19] = molecular target: cGMP-dependent protein kinase 1 (Homo sapiens) (UniProt Q13976); conditions: Compound concentration 100.0 nM
[20] = system: Mast/stem cell growth factor receptor Kit (Homo sapiens), P10721 [V559D]; conditions: Compound concentration 100.0 nM
[21] = molecular target: Serine/threonine-protein kinase RIO1 (Homo sapiens) (UniProt Q9BRS2); conditions: Compound concentration 100.0 nM
[22] = molecular target: Serine/threonine-protein kinase WNK4 (Homo sapiens) (UniProt Q96J92); conditions: Compound concentration 100.0 nM
[23] = molecular target: Death-associated protein kinase 2 (Homo sapiens) (UniProt Q9UIK4); conditions: Compound concentration 100.0 nM
[24] = molecular target: Serine/threonine-protein kinase TNNI3K (Homo sapiens) (UniProt Q59H18); conditions: Compound concentration 100.0 nM
[25] = molecular target: Ephrin type-B receptor 2 (Homo sapiens) (UniProt P29323); conditions: Compound concentration 100.0 nM
[26] = molecular target: Casein kinase II subunit alpha (Homo sapiens) (UniProt P68400); conditions: Compound concentration 100.0 nM
Casein kinase II subunit alpha (Homo sapiens), sequence (P68400 whole entry, looked up): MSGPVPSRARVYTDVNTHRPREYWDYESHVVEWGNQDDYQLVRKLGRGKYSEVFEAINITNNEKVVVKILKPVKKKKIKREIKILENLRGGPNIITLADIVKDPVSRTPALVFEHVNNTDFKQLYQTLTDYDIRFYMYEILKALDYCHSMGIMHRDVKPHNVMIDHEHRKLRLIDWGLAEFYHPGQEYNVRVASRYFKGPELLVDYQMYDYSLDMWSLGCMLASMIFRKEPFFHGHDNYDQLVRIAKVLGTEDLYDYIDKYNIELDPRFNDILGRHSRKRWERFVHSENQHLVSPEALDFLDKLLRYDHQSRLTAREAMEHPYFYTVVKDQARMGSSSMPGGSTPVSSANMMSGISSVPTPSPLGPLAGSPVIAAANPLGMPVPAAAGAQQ

[27] = molecular target: Serine/threonine-protein kinase N1 (Homo sapiens) (UniProt Q16512); conditions: Compound concentration 100.0 nM
[28] = system: Phosphatidylinositol 4,5-bisphosphate 3-kinase catalytic subunit alpha isoform (Homo sapiens), P42336 [I800L]; conditions: Compound concentration 100.0 nM
[29] = molecular target: 5-hydroxytryptamine receptor 7 (Homo sapiens) (UniProt P34969); conditions: Compound concentration 10.0 uM
[30] = molecular target: Dual specificity protein kinase CLK2 (Homo sapiens) (UniProt P49760); conditions: Compound concentration 100.0 nM
[31] = molecular target: Epithelial discoidin domain-containing receptor 1 (Homo sapiens) (UniProt Q08345); conditions: Compound concentration 100.0 nM
[32] = molecular target: Phosphatidylinositol 4,5-bisphosphate 3-kinase catalytic subunit delta isoform (Homo sapiens) (UniProt O00329); conditions: Compound concentration 100.0 nM
[33] = system: Receptor-type tyrosine-protein kinase FLT3 (Homo sapiens), P36888 [UNDEFINED MUTATION]; conditions: Compound concentration 100.0 nM
Receptor-type tyrosine-protein kinase FLT3 (Homo sapiens), P36888 [UNDEFINED MUTATION], sequence (P36888 whole entry, looked up, change not shown): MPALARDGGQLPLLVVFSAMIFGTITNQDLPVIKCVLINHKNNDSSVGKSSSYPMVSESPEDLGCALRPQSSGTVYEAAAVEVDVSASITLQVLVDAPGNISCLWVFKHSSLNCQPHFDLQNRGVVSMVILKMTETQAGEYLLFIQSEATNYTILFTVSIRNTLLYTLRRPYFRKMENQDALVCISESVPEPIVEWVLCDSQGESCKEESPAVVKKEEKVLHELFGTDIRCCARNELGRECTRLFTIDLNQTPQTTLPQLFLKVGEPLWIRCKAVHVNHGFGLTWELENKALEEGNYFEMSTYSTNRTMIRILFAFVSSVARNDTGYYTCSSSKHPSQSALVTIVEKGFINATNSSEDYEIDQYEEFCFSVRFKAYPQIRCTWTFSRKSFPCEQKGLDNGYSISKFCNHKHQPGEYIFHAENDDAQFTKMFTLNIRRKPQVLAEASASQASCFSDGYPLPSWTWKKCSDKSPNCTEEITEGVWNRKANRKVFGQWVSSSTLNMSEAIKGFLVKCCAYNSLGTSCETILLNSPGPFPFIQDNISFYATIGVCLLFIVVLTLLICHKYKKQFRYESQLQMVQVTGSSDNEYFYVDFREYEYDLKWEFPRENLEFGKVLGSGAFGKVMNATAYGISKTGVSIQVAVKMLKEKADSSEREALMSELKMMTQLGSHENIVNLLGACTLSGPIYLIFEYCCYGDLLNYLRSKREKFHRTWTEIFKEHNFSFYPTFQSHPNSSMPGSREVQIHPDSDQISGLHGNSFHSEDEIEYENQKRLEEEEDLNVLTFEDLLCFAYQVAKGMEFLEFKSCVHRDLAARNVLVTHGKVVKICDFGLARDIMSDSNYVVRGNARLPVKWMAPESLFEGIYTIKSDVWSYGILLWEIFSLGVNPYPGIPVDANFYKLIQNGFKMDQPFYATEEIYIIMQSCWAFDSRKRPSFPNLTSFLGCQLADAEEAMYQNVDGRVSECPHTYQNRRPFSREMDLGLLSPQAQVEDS

Compound	residual activity [1] [%]	residual activity [2] [%]	residual activity [3] [%]	residual activity [4] [%]	residual activity [5] [%]	residual activity [6] [%]	residual activity [7] [%]	residual activity [8] [%]	residual activity [9] [%]	inhibition [10] [%]	residual activity [11] [%]	residual activity [12] [%]	residual activity [13] [%]	residual activity [14] [%]	residual activity [15] [%]	residual activity [16] [%]	residual activity [17] [%]	residual activity [18] [%]	residual activity [19] [%]	residual activity [20] [%]	also measured
CCOC(=O)c1cc2cc(-c3cc(C(=O)NCc4ccc(C(=O)O)cc4)nn3C)ccc2[nH]1 [BI 4394]	75	100	93	78	90	68	82	61	100	6.12	100	80	100	92	97	77	100	89	91	100	residual activity [21]: 96%; residual activity [22]: 97%; residual activity [23]: 92%; residual activity [24]: 100%; residual activity [25]: 100%; residual activity [26]: 81%; residual activity [27]: 100%; residual activity [28]: 93%; inhibition [29]: 5.88%; residual activity [30]: 96%; residual activity [31]: 100%; residual activity [32]: 65%; residual activity [33]: 87%
Cn1nc(C(=O)NCc2ccc(C(=O)O)cc2)cc1-c1ccc2[nH]ccc2c1 [BI 4395]	95	83	95	86	82	97	98	87	92	5.48	86	95	83	82	43	77	95	87	100	90	residual activity [21]: 76%; residual activity [22]: 100%; residual activity [23]: 96%; residual activity [24]: 100%; residual activity [25]: 100%; residual activity [26]: 68%; residual activity [27]: 90%; residual activity [28]: 100%; inhibition [29]: -4.31%; residual activity [30]: 100%; residual activity [31]: 89%; residual activity [32]: 97%; residual activity [33]: 99%
